The assay addresses T1, Macrophage migration inhibitory factor (Homo sapiens, UniProt P14174).
T1 sequence (P14174 whole entry): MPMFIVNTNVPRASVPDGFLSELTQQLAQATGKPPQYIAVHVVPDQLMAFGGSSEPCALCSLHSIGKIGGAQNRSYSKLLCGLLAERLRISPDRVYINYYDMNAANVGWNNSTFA
The assay can be described thus: Inhibition of MIF tautomerase activity.
Broadly, the IC50 is the midpoint of a concentration-inhibition curve. A lower IC50 goes with greater potency in that assay. `CCOC(=O)CC1CC(c2ccc(O)cc2)=NO1` (stereo unspecified) had an IC50 of 12 µM.
For `CCCOC(=O)CC1CC(c2ccc(O)cc2)=NO1` (stereo unspecified), 4 µM corresponded to half-maximal inhibition (IC50).
With `CC(C)OC(=O)CC1CC(c2ccc(O)cc2)=NO1` (stereo unspecified), it took 6 µM to reach half-maximal inhibition (IC50).
Consider `O=C(CC1CC(c2ccc(O)cc2)=NO1)OC1CCCCC1` (stereo unspecified), for which the IC50 stood at 2.5 µM.
In turn, `COc1ccc(NC(=O)CC2CC(c3ccc(O)cc3)=NO2)cc1` (stereo unspecified) came in with an IC50 of 26 µM.
Compound `O=C(CC1CC(c2ccc(O)cc2)=NO1)NC1CCCCC1` (stereo unspecified) came in with an IC50 of 24 µM.
For `CC(C)(C)OC(=O)NCCCCNC(=O)CC1CC(c2ccc(O)cc2)=NO1` (stereo unspecified) the value was 8.5 µM; for `CC(C)(C)COC(=O)CC1CC(c2ccc(O)cc2)=NO1` (stereo unspecified), 1.5 µM.
The figure for `CCCCOC(=O)CC1CC(c2ccc(O)cc2)=NO1` (stereo unspecified) is 3 µM; for `COc1ccc(OC(=O)CC2CC(c3ccc(O)cc3)=NO2)cc1` (stereo unspecified) it is 8.5 µM.
With `CC(C)(C)c1ccc(OC(=O)CC2CC(c3ccc(O)cc3)=NO2)cc1` (stereo unspecified), half-maximal inhibition (IC50) was put at 10 µM.
Regarding `COC(=O)CC1CC(c2ccc(O)c(F)c2)=NO1` (stereo unspecified), half-maximal inhibition (IC50) was put at 6.5 µM.
Take `O=C(CC1CC(c2ccc(O)cc2)=NO1)Oc1ccccc1` (stereo unspecified): the half-maximal inhibitory concentration (IC50) worked out at 10 µM.
On to `O=C(CC1CC(c2ccc(O)cc2)=NO1)OCC1CCCCC1` (stereo unspecified), for which the IC50 is 5 µM.
As for `NCCCCNC(=O)CC1CC(c2ccc(O)cc2)=NO1` (stereo unspecified), the IC50 was > 100 µM.
Compound `Cc1cc(C)c(OC(=O)CC2CC(c3ccc(O)cc3)=NO2)c(C)c1` (stereo unspecified) came in with an IC50 of 20 µM.
